According to patent US20250289814A1, “COMPOUNDS AS PARP1 INHIBITIORS” (NINGBO NEWBAY TECHNOLOGY DEVELOPMENT CO., LTD., priority 2022, published 2025):
In brackets after ≈: the same amount, converted by molar mass. Several values for one entry are separate records, joined by “and”; a condition that tells them apart may be missing. Identical values can stand only once. Like-named read-outs stand apart in the source and are kept apart here.

Legend:
[1] = target: Recombinant full length PARP1 (Homo sapiens (Human), UniProt P09874); assay: FP assay PARP1 (fluorescence anisotropy probe displacement); assay type: binding; settings: 20 nM PARP1, 8 nM fluorescent probe, 4 h, room temperature
Experimental: (§1) FP experiments were carried out at room temperature using no-binding black 384-well microplates. Recombinant full length PARP1 and PARP2 proteins produced in house were diluted to 20 nM and 60 nM, respectively, with assay buffer (50 mM Tris pH 8, 0.001% Triton X100, 10 mM MgCl2, and 150 mM NaCl) and incubated for 4 h with an equivalent volume of the 8 nM fluorescent probe diluted with assay buffer. Fluorescence anisotropy of the probe when bound to the proteins was measured in the presence of test compounds or solvent control and the effect on anisotropy determined. Polarization values were read using an Envision plate reader using excitation and emission wavelengths of 590 and 630 nm, respectively. All FP values are expressed as mP units. Inhibition ratio was calculated using readout (mP) following the equation as below: […]
(§2) % inhibition values for different test compound concentrations were calculated and fitted to a four parameter logistic plot in order to determine the IC50 value using XLfit.

[2] = target: Recombinant full length PARP2 (Homo sapiens (Human), UniProt Q9UGN5); assay: FP assay PARP2 (fluorescence anisotropy probe displacement); assay type: binding; settings: 60 nM PARP2, 8 nM fluorescent probe, 4 h, room temperature
Experimental: as §1, §2

DLD1-BRCA2−/− cells = assay: Cell proliferation assay in DLD1-BRCA2−/− cell lines (CellTiter-Glo, 7 days); assay type: cell-based
Procedure, shortened: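 Cells in RPMI 1640 + 10% FBS seeded overnight, then exposed to compound or vehicle for 7 days at 37 °C, 5% CO2. Viability read on day 8 by CellTiter-Glo luminescence; % inhibition fitted to a four-parameter logistic curve for IC50.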

[3] = Caco2 (A-B/B-A) permeability; assay type: in vitro ADME; settings: human; for Papp A→B at 120 min, 5 μM: Caco-2, pH 7.4, apical-to-basolateral, read-out: Caco2 A-B apparent permeability (Papp); for Papp A→B at 120 min, 5 μM / Papp B→A at 120 min, 5 μM: HBSS pH 7.4, 120 min, 37° C.; for Papp B→A at 120 min, 5 μM: Caco-2, pH 7.4, basolateral-to-apical, read-out: Caco2 B-A apparent permeability (Papp); for efflux ratio at 120 min, 5 μM: Caco-2, pH 7.4, PappB-A/PappA-B, read-out: Caco2 efflux ratio (ER)
Procedure, shortened: (§3)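 Bidirectional A-B and B-A transport of 5 μM compound across Caco-2 monolayers in HBSS (10 mM HEPES, pH 7.4), duplicate, ~37° C for 120 min. Donor and receiver levels measured by UPLC-MS/MS give Papp. Efflux ratio = PappB-A/PappA-B, with monolayer integrity checked by Lucifer yellow.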

Caco-2 cell monolayers = assay: Caco2 (A-B/B-A) permeability; assay type: in vitro ADME; settings: for Caco2 efflux ratio (ER): PappB-A/PappA-B; for Caco2 A-B apparent permeability (Papp): apical-to-basolateral; for Caco2 A-B apparent permeability (Papp) / Caco2 B-A apparent permeability (Papp): 5 μM, HBSS pH 7.4, 120 min, 37° C.; for Caco2 B-A apparent permeability (Papp): basolateral-to-apical
Procedure, shortened: as §3

[4] = Kinetic solubility, PBS, pH7.4; assay type: physicochemical; settings: 300 μM test compound
Experimental: After incubation, the samples were filtered, and the filtrate was diluted by 1000-fold with water:acetonitrile 1:1 (v/v) for analysis by UPLC MS/MS to determine the concentration of test compound. The solubility value was calculated by quantification against a standard of known concentration.

[5] = Thermodynamic solubility, FaSSiF; assay type: physicochemical; settings: for solubility thermodynamic at 24 h: FaSSIF, 25 °C, thermodynamic from solid
Experimental: All incubations were performed in duplicate. Test compound or the control compound diclofenac sodium (1.0 mg) were placed into 1.5 mL glass vials. FaSSIF (1000 μL) was added into the vials. The samples were transferred to Eppendorf Thermomixer Comfort plate shaker and shaken at 25° C., 1100 rpm for 24 hours. The samples were then filtered. The filtrate was diluted by 1000-fold with water:acetonitrile 1:1 (v/v) for analysis by UPLC MS/MS to determine the concentration of test compound. The solubility value was calculated by quantification against a standard of known concentration.

[6] = PBS pH 7.4, 25 °C, pH 7.4, aqueous buffer, kinetic from dmso stock

Sequence of Recombinant full length PARP1 (P09874 whole entry): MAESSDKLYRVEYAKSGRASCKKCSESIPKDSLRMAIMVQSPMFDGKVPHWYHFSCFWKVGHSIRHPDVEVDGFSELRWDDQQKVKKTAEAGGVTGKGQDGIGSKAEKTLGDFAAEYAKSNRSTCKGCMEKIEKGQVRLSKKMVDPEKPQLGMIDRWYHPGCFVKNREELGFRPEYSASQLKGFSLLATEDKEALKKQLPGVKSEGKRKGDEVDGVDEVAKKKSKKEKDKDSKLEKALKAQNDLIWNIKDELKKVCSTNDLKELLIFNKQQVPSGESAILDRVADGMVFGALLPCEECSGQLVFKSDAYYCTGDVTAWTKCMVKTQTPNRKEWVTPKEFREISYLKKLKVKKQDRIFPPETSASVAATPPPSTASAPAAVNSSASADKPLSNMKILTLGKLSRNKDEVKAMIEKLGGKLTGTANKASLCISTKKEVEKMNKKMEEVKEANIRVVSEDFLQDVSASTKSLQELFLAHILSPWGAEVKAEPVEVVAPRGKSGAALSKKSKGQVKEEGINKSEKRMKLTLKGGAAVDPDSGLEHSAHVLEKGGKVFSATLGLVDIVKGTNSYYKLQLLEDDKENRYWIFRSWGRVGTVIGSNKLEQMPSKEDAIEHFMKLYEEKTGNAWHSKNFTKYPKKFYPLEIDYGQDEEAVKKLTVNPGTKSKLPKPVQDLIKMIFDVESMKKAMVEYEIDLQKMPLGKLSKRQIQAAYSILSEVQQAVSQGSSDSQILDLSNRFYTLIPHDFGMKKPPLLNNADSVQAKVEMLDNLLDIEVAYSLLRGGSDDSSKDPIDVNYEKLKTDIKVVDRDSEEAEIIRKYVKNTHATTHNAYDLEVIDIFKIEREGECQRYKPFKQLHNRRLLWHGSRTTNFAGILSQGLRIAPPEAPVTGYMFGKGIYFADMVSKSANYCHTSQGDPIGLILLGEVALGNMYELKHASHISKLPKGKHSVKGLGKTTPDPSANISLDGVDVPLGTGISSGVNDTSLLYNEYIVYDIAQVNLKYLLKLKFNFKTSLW
Sequence of Recombinant full length PARP2 (Q9UGN5 whole entry): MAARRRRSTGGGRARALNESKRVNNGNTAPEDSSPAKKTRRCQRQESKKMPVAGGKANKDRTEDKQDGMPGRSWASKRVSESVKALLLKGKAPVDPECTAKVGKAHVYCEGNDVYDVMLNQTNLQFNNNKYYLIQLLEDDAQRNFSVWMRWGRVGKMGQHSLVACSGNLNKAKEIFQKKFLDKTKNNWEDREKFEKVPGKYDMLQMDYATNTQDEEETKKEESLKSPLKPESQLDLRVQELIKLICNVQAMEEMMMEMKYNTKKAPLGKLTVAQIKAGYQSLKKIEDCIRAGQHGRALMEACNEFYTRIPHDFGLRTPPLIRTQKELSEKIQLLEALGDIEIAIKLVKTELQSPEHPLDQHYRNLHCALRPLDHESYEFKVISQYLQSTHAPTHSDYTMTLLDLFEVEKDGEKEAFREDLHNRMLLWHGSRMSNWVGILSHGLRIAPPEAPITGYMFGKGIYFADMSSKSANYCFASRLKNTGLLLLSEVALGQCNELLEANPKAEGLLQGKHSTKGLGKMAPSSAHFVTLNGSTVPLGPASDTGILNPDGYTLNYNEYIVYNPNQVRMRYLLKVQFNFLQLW

Row | IC50 [1] [nM] | IC50 [2] [nM] | IC50 (DLD1-BRCA2−/− cells; Homo sapiens, DLD-1, 168 h) [nM] | Papp A→B at 120 min, 5 μM [3] [×10⁻⁶ cm/s] | Papp B→A at 120 min, 5 μM [3] [×10⁻⁶ cm/s] | Caco2 efflux ratio (ER) (Caco-2 cell monolayers) | IC50 (DLD1-BRCA2−/− cells) [nM] | Caco2 A-B apparent permeability (Papp) (Caco-2 cell monolayers) | Caco2 B-A apparent permeability (Papp) (Caco-2 cell monolayers) | solubility kinetic at 2 h [4, 6] [µM] | solubility thermodynamic at 24 h [5] [µg/mL] | efflux ratio at 120 min, 5 μM [3] | solubility kinetic at 2 h ([4]; 25° C., read-out: Kinetic solubility, PBS, pH 7.4) [µM] | Thermodynamic Solubility, FaSSiF ([5]; 25° C., 24 hours) | SMILES
1 | 5.8 | > 10000 | 26.8 | 4.82 | 35.6 | (ER = 7.38) |  |  |  |  |  |  |  |  | CCc1cc2cnc([C@@H](C)N3CC(Oc4ccc(C(=O)NC)nc4)C3)cc2[nH]c1=O (single isomer, unassigned) [Compound 47, (enantiomer 1 or 2)-5-((1-(1-(3-ethyl-2-oxo-1,2-dihydro-1,6-naphthyridin-7-yl)ethyl)azetidin-3-yl)oxy)-N-methylpicolinamide]
2 | 4.3 | 2580 |  |  |  | (ER = 8.07) | 6.6 | 5.51 10*−6 cm/s | 44.49 10*−6 cm/s |  |  |  |  |  | CCc1cc2ncc([C@@H](C)N3CC(Oc4ccc(C(=O)NC)nc4F)C3)cc2[nH]c1=O (single isomer, unassigned; enantiomer 2) [Compound 46, (enantiomer 2)-5-((1-(1-(7-ethyl-6-oxo-5,6-dihydro-1,5-naphthyridin-3-yl)ethyl)azetidin-3-yl)oxy)-6-fluoro-N-methylpicolinamide]
3 | 18.1 | > 10000 |  |  |  | (ER = 8.36) | 7.2 | 3.84 10*−6 cm/s | 32.1 10*−6 cm/s |  |  |  |  |  | CCc1cc2cnc([C@H](C)N3CC(Oc4ccc(C(=O)NC)nc4F)C3)cc2[nH]c1=O (single isomer, unassigned; enantiomer 2) [Compound 50, (enantiomer 2)-5-((1-(1-(3-ethyl-2-oxo-1,2-dihydro-1,6-naphthyridin-7-yl)ethyl)azetidin-3-yl)oxy)-6-fluoro-N-methylpicolinamide]
4 | 4.8 |  | 4.5 | 3.86 | 22.7 |  |  |  |  | 29.4 (≈ 11.6 µg/mL) | 1.77 (≈ 4.5 µM) |  |  |  | CCc1cc2ncc(CN3CC(Oc4ccc(C(=O)NC)nc4)C3)cc2[nH]c1=O [Compound 1, 5-((1-((7-ethyl-6-oxo-5,6-dihydro-1,5-naphthyridin-3-yl)methyl)azetidin-3-yl)oxy)-N-methylpicolinamide]
5 | 10.3 | > 10000 | 216 | 4.77 | 35.7 |  |  |  |  | 223 (≈ 90.9 µg/mL) | 115 (≈ 283 µM) | 7.49 |  |  | CCc1cc2ncc([C@@H](C)N3CC(Oc4ccc(C(=O)NC)nc4)C3)cc2[nH]c1=O [Compound 4, (R)-5-((1-(1-(7-ethyl-6-oxo-5,6-dihydro-1,5-naphthyridin-3-yl)ethyl)azetidin-3-yl)oxy)-N-methylpicolinamide]
6 | 5.2 | 3120 | 6.9 | 3.39 | 33.2 |  |  |  |  | 250 (≈ 102 µg/mL) | 107 (≈ 262 µM) | 9.78 | 281.58 (≈ 115 µg/mL) | 145.89 µg/mL and 126.09 µg/mL | CCc1cc2ncc([C@H](C)N3CC(Oc4ccc(C(=O)NC)nc4)C3)cc2[nH]c1=O [Compound 5, (S)-5-((1-(1-(7-ethyl-6-oxo-5,6-dihydro-1,5-naphthyridin-3-yl)ethyl)azetidin-3-yl)oxy)-N-methylpicolinamide]
